For data set [1], the system named is P. falciparum CQ-resistant strain W2. Put plainly: In vitro antiplasmodial activity, SYBR Green I fluorescence-based method, strain W2. It counts as cell-based. The following applies: for IC50: Plasmodium falciparum, chloroquine-resistant strain W2, 48 h incubation, read-out: P. falciparum strains IC50 values, W2; for Selectivity index HepG2/W2: SI = CC50 HepG2 / IC50 P. falciparum W2. The protocol:
(§1) The in vitro antiplasmodial activities were tested over concentrations ranging from […] against culture-adapted P. falciparum reference strains 3D7 and W2. […] The parasites were cultivated in RPMI medium (Sigma-Aldrich, Lyon, France) supplemented with 0.5% Albumax I (Life Technologies Corporation, Paisley, UK), hypoxanthine (Sigma-Aldrich), and gentamicin (Sigma-Aldrich) with human erythrocytes and were incubated at 37 °C in a candle jar, as described previously[43] .The P. falciparum drug susceptibility test was carried out in 96-well flat-bottom sterile plates in a final volume of 250 µl. After 48 h incubation period with the drugs, quantities of DNA in treated and control cultures of parasites in human erythrocytes were quantified using the SYBR Green I (Sigma-Aldrich) fluorescence-based method[44]^,[45]. Briefly, after incubation, plates were frozen at −20 °C until use. Plates were then thawed for 2 h at room temperature, and 100 µl of each homogenised culture was transferred to a well of a 96-well flat-bottom sterile black plate (Nunc, Inc., Rochester, NY) that contained 100 µl of the SYBR Green I lysis buffer (2xSYBR Green, 20 mM Tris base pH 7.5, 5 mM EDTA, 0.008% w/v saponin, 0.08% w/v Triton X-100). […] Plates were incubated for 1 h at room temperature and then read on a fluorescence plate reader (Tecan, Grödig, Austria) using excitation and emission wavelengths of 485 and 535 nm, respectively. IC50 values were calculated by non-linear regression analysis of data from dose-response curves, using TableCurve 2D version 5.0 software (Systat Software, San Jose, CA). IC50 values are reported as means calculated from three independent experiments.

In data set [2] the test system is P. falciparum CQ-sensitive strain 3D7. Put plainly: In vitro antiplasmodial activity, SYBR Green I fluorescence-based method, strain 3D7. It counts as cell-based. The conditions noted are these: for IC50: Plasmodium falciparum, chloroquine-sensitive strain 3D7, 48 h incubation, read-out: P. falciparum strains IC50 values, 3D7; for Selectivity index HepG2/3D7: SI = CC50 HepG2 / IC50 P. falciparum 3D7. The protocol:
as §1

Data set [3] relates to L. donovani (MHOM/IN/00/DEVI) promastigotes. Nature of the data set: In vitro antileishmanial activity, MTT assay on promastigotes. The format is cell-based. The following applies: Leishmania donovani, 72 h incubation, ≥10 = no activity noted at the highest concentration tested. As to the method:
L. donovani (MHOM/IN/00/DEVI) used in this study was provided by the CNR Leishmania (Montpellier, France). The effects of the tested compounds on the growth of L. donovani (MHOM/IN/00/DEVI) promastigotes were assessed by MTT assay. Briefly, promastigotes in log-phase in Schneider’s medium supplemented with 20% foetal calf serum (FCS), 2 mM L-glutamine and antibiotics (100 U/ml penicillin and 100 µg/ml streptomycin), were incubated at an average density of 10^6 parasites/ml in sterile 96-well plates with various concentrations of compounds dissolved in DMSO (final concentration less than 0.5% v/v), in duplicate. Appropriate controls treated with DMSO and amphotericin B (reference drug purchased from Sigma-Aldrich) were added to each set of experiments. After 72 h incubation period at 27 °C, parasite metabolic activity was determined. Each well was microscopically examined for precipitate formation. To each well was added 20 µl of 5 mg/ml MTT [3–(4,5-dimethylthiazol-2-yl)-2,5-diphenyltetrazolium bromide)] solution followed by 4 h incubation time. The enzyme reaction was stopped by addition of 100 µl of 50% isopropanol/10% sodium dodecyl sulfate. Plates were vigorously shaken (300 rpm) for 10 min, and the absorbance was measured at 570 nm in a BIO-TEK ELx808 Absorbance Microplate Reader. […] IC50 of the parasite’s growth (half maximal inhibitory concentration or IC50 values) were then calculated from the obtained experimental results using a previously described regression programme.

The test system of data set [4] is T. brucei brucei AnTat 1.9. Nature of the data set: In vitro antitrypanosomal activity, Alamar Blue assay. The format is cell-based. The conditions noted are these: for Selectivity index HepG2/Tryp.: SI = CC50 HepG2 / IC50 Trypanosoma brucei brucei; for IC50: Trypanosoma brucei, slender bloodstream trypomastigotes, AnTat 1.9 strain, read-out: Trypanosoma brucei brucei IC50 values, Trypanos Antat 1.9. As to the method:
The effects of the tested compounds on the growth of T. brucei brucei were assessed using an Alamar Blue® assay described by Räz et al.[49] T. brucei brucei AnTat 1.9 (IMTA, Antwerpen, Belgium) was cultured in MEM with Earle’s salts, supplemented according to the protocol of Baltz et al.[50] with the following modifications: 0.5 mM mercaptoethanol (Sigma Aldrich), 1.5 mM L-cysteine (Sigma Aldrich), 0.05 mM bathocuproine sulphate (Sigma Aldrich), and 20% heat-inactivated horse serum (Gibco, France) at 37 °C and 5% CO2. Samples were incubated at an average density of 2000 parasites/well in sterile 96-wells plates (Fisher, France) with various concentrations of compounds dissolved in 0.9% NaCl. All doses were tested in duplicate. Appropriate controls treated with solvents 0.9% NaCl or DMSO or with suramin, pentamidine, eflornithine, and fexinidazole (reference drugs purchased from Sigma Aldrich and Fluorochem, UK) were added to each set of experiments. After 69 h incubation period at 37 °C, 10 µl of the viability marker Alamar Blue (Fisher) was added to each well, and the plates were incubated for 5 h. The plates were read in a PerkinElmer ENSPIRE (Germany) microplate reader using an excitation wavelength of 530 nm and an emission wavelength of 590 nm. […] IC50 values were calculated using a nonlinear regression analysis of dose-response curves performed using GraphPad Prism software (La Jolla, CA). IC50 values were calculated from three independent experiments.

The nature of data set [5]: Cytotoxicity evaluation, MTT. The format is cell-based, human. The following applies: human. As to the method:
These cells are a commonly used human hepatocarcinoma-derived cell line that has characteristics similar to those of primary hepatocytes. These cells express many hepatocyte-specific metabolic enzymes, thus enabling the cytotoxicity of tested product metabolites to be evaluated. […] Duplicate assays were performed for each sample. Each well was microscopically examined for precipitate formation before the medium was aspirated from the wells. After aspiration, 100 µl of MTT solution (0.5 mg/ml in medium without FCS) were then added to each well. […] The MTT solution was removed, and DMSO (100 µl) was added to dissolve the resulting blue formazan crystals. Plates were shaken vigorously (300 rpm) for 5 min. The absorbance was measured at 570 nm with 630 nm as reference wavelength in a BIO-TEK ELx808 Absorbance Microplate Reader. DMSO was used as blank and doxorubicin (Sigma Aldrich) as positive control. Cell viability was calculated as percentage of control (cells incubated without compound). The CC50 was determined from the dose-response curve using the TableCurve 2D version 5.0 software (Systat Software, San Jose, CA)

What is called IC50 is the midpoint of a concentration-inhibition curve. The term CC50 denotes the concentration giving 50% cytotoxicity. Read a low CC50 as greater toxicity to the cells. On to `COc1ccc2c(-c3ccc(CNCCN4CCN(C)CC4)cc3)nc(-c3ccc(CNCCN4CCN(C)CC4)cc3)nc2c1` [Compound 3r, 7-Methoxy-2,4-bis{4-[(2–(4-methylpiperazin-1-yl)ethyl)aminomethyl]phenyl}quinazoline], for which, in data set [1], the concentration for half-maximal inhibition (IC50) was 4.75 ± 0.31 µM and the “Selectivity index HepG2/W2” value is reported as 0.82. Also, in data set [2], the IC50 came out at 4.34 ± 0.33 µM and the “Selectivity index HepG2/3D7” value was 0.90. This compound showed a half-inhibitory concentration (IC50) in data set [3] of at least 10 µM. For the same compound, in data set [4], the “Selectivity index HepG2/Tryp.” value worked out at 3.64 and the concentration for half-maximal inhibition (IC50) turned out to be 1.07 ± 0.164 µM. The same compound came in with a CC50 at 72 h in data set [5] of 3.9 ± 0.9 µM.

`COc1ccc2c(-c3ccc(CNCCCCN4CCN(C)CC4)cc3)nc(-c3ccc(CNCCCCN4CCN(C)CC4)cc3)cc2c1` [Compound 2k, 6-Methoxy-1,3-bis{4-[(4–(4-methylpiperazin-1-yl)butyl)aminomethyl]phenyl}isoquinoline]: in data set [1], the IC50 came to 5.96 ± 0.54 µM and the “Selectivity index HepG2/W2” value amounted to 1.09. Besides, in data set [2], the IC50 was determined as 8.91 ± 0.87 µM and the “Selectivity index HepG2/3D7” value is listed as 0.73. In data set [3], this compound displayed an IC50 of at least 10 µM. For the same compound, in data set [4], the “Selectivity index HepG2/Tryp.” value is recorded as 6.54 and the IC50 turned out to be 0.99 ± 0.122 µM. For the same compound, in data set [5], the CC50 at 72 h was 6.48 ± 0.6 µM.

For the compound `COc1ccc2cc(-c3ccc(CNCCCCN4CCN(C)CC4)cc3)nc(-c3ccc(CNCCCCN4CCN(C)CC4)cc3)c2c1` [Compound 2g, 7-Methoxy-1,3-bis{4-[(4–(4-methylpiperazin-1-yl)butyl)aminomethyl]phenyl}isoquinoline], in data set [1], the IC50 was found to be 7.61 ± 0.94 µM and the “Selectivity index HepG2/W2” value came to 1.33. In data set [2], the IC50 stood at 3.27 ± 0.31 µM and the “Selectivity index HepG2/3D7” value was 3.11. The compound also displayed an IC50 in data set [3] of at least 10 µM. In data set [4], the “Selectivity index HepG2/Tryp.” value is listed as 10.16 and the IC50 was 1 ± 0.261 µM. This compound also returned a CC50 at 72 h in data set [5] of 10.2 ± 0.9 µM.

For `COc1ccc2c(-c3ccc(CNCCCN4CCN(C)CC4)cc3)nc(-c3ccc(CNCCCN4CCN(C)CC4)cc3)cc2c1` [Compound 2l], in data set [1], the half-inhibitory concentration (IC50) turned out to be 9.6 ± 0.99 µM and the “Selectivity index HepG2/W2” value was 0.21. In data set [2], the concentration for half-maximal inhibition (IC50) worked out at 9.66 ± 1.2 µM and the “Selectivity index HepG2/3D7” value amounted to 0.21. In data set [3], this compound gave an IC50 of at least 10 µM. Moreover, in data set [4], the “Selectivity index HepG2/Tryp.” value was 1.50 and the IC50 was 1.34 ± 0.088 µM. The same compound had a half-maximal cytotoxic concentration (CC50) at 72 h in data set [5] of 2.01 ± 0.2 µM.

Regarding `COc1ccc2nc(-c3ccc(CNCCCN4CCN(C)CC4)cc3)cc(-c3ccc(CNCCCN4CCN(C)CC4)cc3)c2c1` [Compound 1l, 6-Methoxy-2,4-bis{4-[(3–(4-methylpiperazin-1-yl)propyl)aminomethyl]phenyl}quinoline], in data set [1], the IC50 was 4.51 ± 0.71 µM and the “Selectivity index HepG2/W2” value is on record as 0.23. In data set [2], the IC50 is 1.8 ± 0.2 µM and the “Selectivity index HepG2/3D7” value came to 0.57. In data set [3], this compound had an IC50 of at least 10 µM. In addition, in data set [4], the “Selectivity index HepG2/Tryp.” value came out at 0.66 and the IC50 was 1.54 ± 0.164 µM. In data set [5], this compound had a CC50 at 72 h of 1.02 ± 0.1 µM.

Regarding `COc1ccc2c(-c3ccc(CNCCCN4CCN(C)CC4)cc3)cc(-c3ccc(CNCCCN4CCN(C)CC4)cc3)nc2c1` [Compound 1p, 7-Methoxy-2,4-bis{4-[(3–(4-methylpiperazin-1-yl)propyl)aminomethyl]phenyl}quinoline], the IC50 in data set [1] was 2.73 ± 0.76 µM; in data set [2], 4.34 ± 0.5 µM; in data set [3], at least 10 µM; in data set [4], 1.01 ± 0.135 µM. Besides, in data set [1], the “Selectivity index HepG2/W2” value is 2.36. In data set [2], the “Selectivity index HepG2/3D7” value turned out to be 1.48. In addition, the “Selectivity index HepG2/Tryp.” value in data set [4] was 6.37. In data set [5], this compound returned a cytotoxic concentration (CC50) at 72 h of 6.44 ± 0.6 µM.

Take `COc1ccc2nc(-c3ccc(CNCCCCN4CCN(C)CC4)cc3)cc(-c3ccc(CNCCCCN4CCN(C)CC4)cc3)c2c1` [Compound 1k, 6-Methoxy-2,4-bis{4-[(4–(4-methylpiperazin-1-yl)butyl)aminomethyl]phenyl}quinoline]: the half-inhibitory concentration (IC50) is 4.1 ± 0.54 µM in data set [1], 2.59 ± 0.2 µM in data set [2], at least 10 µM in data set [3] and 0.98 ± 0.118 µM in data set [4]. In addition, the “Selectivity index HepG2/W2” value in data set [1] was determined as 1.50. Also, the “Selectivity index HepG2/3D7” value in data set [2] is 2.38. Also, the “Selectivity index HepG2/Tryp.” value in data set [4] is given as 6.28. The compound further had a CC50 at 72 h in data set [5] of 6.16 ± 0.4 µM.

As for `COc1ccc2nc(-c3ccc(CNCCCCN(C)C)cc3)cc(-c3ccc(CNCCCCN(C)C)cc3)c2c1` [Compound 1i, 6-Methoxy-2,4-bis{4-[(4-dimethylaminobutyl)aminomethyl]phenyl}quinoline], in data set [1], the IC50 is 7.92 ± 0.64 µM and the “Selectivity index HepG2/W2” value turned out to be 0.45. Besides, in data set [2], the IC50 stood at 3.09 ± 0.38 µM and the “Selectivity index HepG2/3D7” value turned out to be 1.16. In addition, the IC50 in data set [3] is at least 10 µM. Besides, in data set [4], the “Selectivity index HepG2/Tryp.” value came to 5.34 and the IC50 was 0.67 ± 0.091 µM. The 50% cytotoxic concentration (CC50) at 72 h in data set [5] turned out to be 3.58 ± 0.3 µM.

As for `COc1ccc2c(-c3ccc(CNCCCCN4CCN(C)CC4)cc3)nc(-c3ccc(CNCCCCN4CCN(C)CC4)cc3)nc2c1` [Compound 3p, 7-Methoxy-2,4-bis{4-[(4–(4-methylpiperazin-1-yl)butyl)aminomethyl]phenyl}quinazoline], in data set [1], the half-inhibitory concentration (IC50) stood at 5.08 ± 0.48 µM and the “Selectivity index HepG2/W2” value is recorded as 3.41. For the same compound, in data set [2], the 50% inhibitory concentration (IC50) came to 6.56 ± 1.44 µM and the “Selectivity index HepG2/3D7” value was determined as 2.64. Also, the IC50 in data set [3] is at least 10 µM. Moreover, in data set [4], the “Selectivity index HepG2/Tryp.” value turned out to be 17.01 and the concentration for half-maximal inhibition (IC50) is 1.02 ± 0.194 µM. Also, the CC50 at 72 h in data set [5] is 17.4 ± 1.2 µM.

Source of the values: publication PMC6968685 (Journal of Enzyme Inhibition and Medicinal Chemistry, 2020).
